Measured values as given in US11535630B2, “Apelin receptor (APJ) agonists and uses thereof” (Research Triangle Institute, priority 2015, dated 2022).

Molecular target: T1, apelin receptor (APJ) (Homo sapiens, UniProt P35414)
T1 sequence (P35414 1-380): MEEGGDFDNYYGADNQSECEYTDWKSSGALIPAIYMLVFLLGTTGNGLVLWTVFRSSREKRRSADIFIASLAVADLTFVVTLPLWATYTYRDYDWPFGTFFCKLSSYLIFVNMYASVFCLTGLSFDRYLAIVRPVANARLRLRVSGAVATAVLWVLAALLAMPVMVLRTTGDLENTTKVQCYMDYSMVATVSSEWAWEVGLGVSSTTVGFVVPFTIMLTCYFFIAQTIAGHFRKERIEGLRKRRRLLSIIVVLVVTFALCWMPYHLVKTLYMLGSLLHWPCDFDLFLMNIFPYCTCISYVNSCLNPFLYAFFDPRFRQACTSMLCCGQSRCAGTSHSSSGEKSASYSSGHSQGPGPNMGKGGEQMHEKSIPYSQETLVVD
Assay: In vitro apelin agonist activity (methods of Giddings et al., Apelin-13 as positive control)
Format: cell-based
Conditions: in vitro apelin agonist activity, methods of Giddings et al., Apelin-13 as positive control; read-out: EC50 (nM) Ave
From the text: Characterization of the Apelin Agonist Activity of the Compounds
1:39-47, the contents of which are hereby incorporated by reference in its entirety. Using the methods described in Giddings et al. and Apelin-13 as a positive control.

| EC50 | Compound |
| --- | --- |
| 1070 nM | CC1(C)CC(=O)CN1CC[C@@H](CC(=O)O)NC(=O)c1cc(-c2ccccc2C(F)(F)F)n(C2CCCC2)n1 [compound 608, (3S)-3-({1-cyclopentyl-5-[2-(trifluoromethyl)phenyl]-1H-pyrazol-3-yl}formamido)-5-(2,2-dimethyl-4-oxopyrrolidin-1-yl)pentanoic acid] |
| 1840 nM | CCN(CC)CC[C@@H](CC(=O)NC1CCC1)NC(=O)c1cc(-c2c(OC)cccc2OC)n(C2CCCC2)n1 [compound 314, (3S)-N-cyclobutyl-3-{[1-cyclopentyl-5-(2,6-dimethoxyphenyl)-1H-pyrazol-3-yl]formamido}-5-(diethylamino)pentanamide] |
| 91 nM | C[C@H](C[C@@H](CC(=O)O)NC(=O)c1cc(-c2ccccc2C(F)(F)F)n(C2CCCC2)n1)N1CCCC(F)(F)C1 [compound 575, (3S,5R)-3-({1-cyclopentyl-5-[2-(trifluoromethyl)phenyl]-1H-pyrazol-3-yl}formamido)-5-(3,3-difluoropiperidin-1-yl)hexanoic acid] |
| 215 nM | O=C(O)C[C@H](CCN1CCCCC1)NC(=O)c1cc(-c2ccccc2C(F)(F)F)n(C2CCCC2)n1 [compound 494, (3S)-3-({1-cyclopentyl-5-[2-(trifluoromethyl)phenyl]-1H-pyrazol-3-yl}formamido)-5-(piperidin-1-yl)pentanoic acid] |
| > 10000 nM | COc1cccc(OC)c1-c1cc(C(=O)N[C@H]2CCN(Cc3ccncc3)C(=O)C2)nn1C1CCCC1 [compound 315, 1-cyclopentyl-5-(2,6-dimethoxyphenyl)-N-[(4S)-2-oxo-1-(pyridin-4-ylmethyl)piperidin-4-yl]-1H-pyrazole-3-carboxamide] |
| 59 nM | O=C(C[C@H](CCN1CCCC1)NC(=O)c1cc(-c2ccccc2C(F)(F)F)n(C2CCCC2)n1)NC1CCC1 [compound 504, (3S)-N-cyclobutyl-3-({1-cyclopentyl-5-[2-(trifluoromethyl)phenyl]-1H-pyrazol-3-yl}formamido)-5-(pyrrolidin-1-yl)pentanamide] |
| 65 nM | CCc1ccccc1-c1cc(C(=O)N[C@@H](CCN2CCCC(F)(F)C2)CC(=O)O)nn1C1CCCC1 [compound 404, (3S)-3-{[1-cyclopentyl-5-(2-ethylphenyl)-1H-pyrazol-3-yl]formamido}-5-(3,3-difluoropiperidin-1-yl)pentanoic acid] |
| > 10000 nM | O=C(CCNC(=O)c1cc(-c2ccccc2C(F)(F)F)n(C2CCCC2)n1)NCc1ccccc1 [compound 442, N-benzyl-3-({1-cyclopentyl-5-[2-(trifluoromethyl)phenyl]-1H-pyrazol-3-yl}formamido)propanamide] |
| 355 nM | O=C(O)C[C@H](CCN1CCCCC1=O)NC(=O)c1cc(-c2ccccc2C(F)(F)F)n(C2CCCC2)n1 [compound 587, (3S)-3-({1-cyclopentyl-5-[2-(trifluoromethyl)phenyl]-1H-pyrazol-3-yl}formamido)-5-(2-oxopiperidin-1-yl)pentanoic acid] |
| 648 nM | CC(C[C@@H](CC(=O)O)NC(=O)c1cc(-c2ccccc2C(F)(F)F)n(C2CCCC2)n1)N1CCC(F)(F)C1 (stereo partly drawn) [compound 567, (3S)-3-({1-cyclopentyl-5-[2-(trifluoromethyl)phenyl]-1H-pyrazol-3-yl}formamido)-5-(3,3-difluoropyrrolidin-1-yl)hexanoic acid] |
| > 10000 nM | CCN(C(=O)c1cc(-c2c(OCC(F)(F)F)cccc2OCC(F)(F)F)n(C2CCCC2)n1)[C@@H](CCN1CCCCC1)CC(=O)NC1CCC1 [compound 342, (3S)-3-(1-{5-[2,6-bis(2,2,2-trifluoroethoxy)phenyl]-1-cyclopentyl-1H-pyrazol-3-yl}-N-ethylformamido)-N-cyclobutyl-5-(piperidin-1-yl)pentanamide] |
| 32 nM | CN(CC[C@@H](CC(=O)NC1CCC1)NC(=O)c1cc(-c2ccccc2C(F)(F)F)n(C2CCCC2)n1)C1CCC1 [compound 506, (3S)-N-cyclobutyl-5-[cyclobutyl(methyl)amino]-3-({1-cyclopentyl-5-[2-(trifluoromethyl)phenyl]-1H-pyrazol-3-yl}formamido)pentanamide] |
| 32 nM | O=C(C[C@H](CCN1CC(F)(F)C1)NC(=O)c1cc(-c2ccccc2C(F)(F)F)n(C2CCCC2)n1)NC1CCC1 [compound 535, (3S)-N-cyclobutyl-3-({1-cyclopentyl-5-[2-(trifluoromethyl)phenyl]-1H-pyrazol-3-yl}formamido)-5-(3,3-difluoroazetidin-1-yl)pentanamide] |
| 44 nM | CC(F)(F)c1ccccc1-c1cc(C(=O)N[C@@H](CCN2C[C@H](F)[C@@H](F)C2)CC(=O)O)nn1C1CCCC1 (stereo in doubt) [compound 594, (3S)-3-({1-cyclopentyl-5-[2-(1,1-difluoroethyl)phenyl]-1H-pyrazol-3-yl}formamido)-5-[trans-3,4-difluoropyrrolidin-1-yl]pentanoic acid] |
| 134 nM | O=C(C[C@H](CCN1CCCC(F)(F)C1)NC(=O)c1cc(-c2ccccc2C(F)(F)F)n(C2CCCC2)n1)NS(=O)(=O)C(F)(F)F [compound 529, (3S)-3-({1-cyclopentyl-5-[2-(trifluoromethyl)phenyl]-1H-pyrazol-3-yl}formamido)-5-(3,3-difluoropiperidin-1-yl)-N-(trifluoromethane)sulfonylpentanamide] |
| 6.1 nM | O=C(C[C@H](CCN1CCCC(F)(F)C1)NC(=O)c1cc(-c2ccccc2Cl)n(C2CCCC2)n1)Nc1nccs1 [compound 429, (3S)-3-{[5-(2-chlorophenyl)-1-cyclopentyl-1H-pyrazol-3-yl]formamido}-5-(3,3-difluoropiperidin-1-yl)-N-(1,3-thiazol-2-yl)pentanamide] |
| 883 nM | COc1cccc(OC)c1-c1cc(C(=O)N[C@@H](CCc2cccnc2)CC(=O)NC2CCC2)nn1C1CCCC1 [compound 420, (3S)-N-cyclobutyl-3-{[1-cyclopentyl-5-(2,6-dimethoxyphenyl)-1H-pyrazol-3-yl]formamido}-5-(pyridin-3-yl)pentanamide] |
| 8680 nM | CC1(NC(=O)C[C@H](CC(=O)N2CCCCC2)NC(=O)c2cc(-c3ccccc3C(F)(F)F)n(C3CCCC3)n2)COC1 [compound 550, (3R)-3-({1-cyclopentyl-5-[2-(trifluoromethyl)phenyl]-1H-pyrazol-3-yl}formamido)-N-(3-methyloxetan-3-yl)-5-oxo-5-(piperidin-1-yl)pentanamide] |
| 548 nM | O=C(O)C[C@H](CCN1CCCC1)NC(=O)c1cc(-c2ccccc2C(F)(F)F)n(C2CCCC2)n1 [compound 499, (3S)-3-({1-cyclopentyl-5-[2-(trifluoromethyl)phenyl]-1H-pyrazol-3-yl}formamido)-5-(pyrrolidin-1-yl)pentanoic acid] |
| 58 nM | Cc1cnc(NC(=O)C[C@H](CCN2CCC(F)(F)CC2)NC(=O)c2cc(-c3ccccc3C(F)(F)F)n(C3CCCC3)n2)s1 [compound 436, (3S)-3-({1-cyclopentyl-5-[2-(trifluoromethyl)phenyl]-1H-pyrazol-3-yl]formamido)-5-(4,4-difluoropiperidin-1-yl)-N-(5-methyl-1,3-thiazol-2-yl)pentanamide] |
| 435 nM | O=C(N[C@@H](CCc1ccc(F)cc1)Cc1nnc[nH]1)c1cc(-c2ccccc2C(F)(F)F)n(C2CCCC2)n1 [compound 470, 1-cyclopentyl-N-[(2S)-4-(4-fluorophenyl)-1-(4H-1,2,4-triazol-3-yl)butan-2-yl]-5-[2-(trifluoromethyl)phenyl]-1H-pyrazole-3-carboxamide] |
| 39 nM | O=C(C[C@H](CCNC(=O)C1CCCC1)NC(=O)c1cc(-c2ccccc2C(F)(F)F)n(C2CCCC2)n1)NC1CCC1 [compound 536, (3S)-N-cyclobutyl-3-({1-cyclopentyl-5-[2-(trifluoromethyl)phenyl]-1H-pyrazol-3-yl}formamido)-5-(cyclopentylformamido)pentanamide] |
| 41 nM | C[C@]1(F)CCCN(CC[C@@H](CC(=O)O)NC(=O)c2cc(-c3ccccc3C(F)(F)F)n(C3CCCC3)n2)C1 [compound 614, (3S)-3-({1-cyclopentyl-5-[2-(trifluoromethyl)phenyl]-1H-pyrazol-3-yl}formamido)-5-[(3S)-3-fluoro-3-methylpiperidin-1-yl]pentanoic acid] |
| > 10000 nM | CCC(CC)n1nc(C(=O)N[C@@H](CCC2CCCCC2)CC(=O)O)cc1-c1c(OC)cccc1OC [compound 649, (3S)-5-cyclohexyl-3-{[5-(2,6-dimethoxyphenyl)-1-(pentan-3-yl)-1H-pyrazol-3-yl]formamido}pentanoic acid] |

| Compound | EC50 |
| --- | --- |
| COc1cccc(OC)c1-c1cc(C(=O)N[C@@H](CCC2CCCCC2)CC(=O)O)nn1CC1CCCCC1 [compound 648] | > 10000 nM |
| O=C(N[C@@H](CC1CCCCC1)C(=O)O)c1cc(-c2ccccc2C(F)(F)F)n(C2CCCC2)n1 [compound 577, (2S)-3-cyclohexyl-2-({1-cyclopentyl-5-[2-(trifluoromethyl)phenyl]-1H-pyrazol-3-yl}formamido)propanoic acid] | 1030 nM |
| O=C(N[C@@H](CC1CCCC1)C(=O)O)c1cc(-c2ccccc2C(F)(F)F)n(C2CCCC2)n1 [compound 526, (2S)-3-cyclopentyl-2-({1-cyclopentyl-5-[2-(trifluoromethyl)phenyl]-1H-pyrazol-3-yl}formamido)propanoic acid] | 1720 nM |
| COc1cccc(OC)c1-c1cc(C(=O)N[C@@H](CC2CCC2)C(=O)O)nn1C1CCCC1 [compound 386, (2S)-3-cyclobutyl-2-{[1-cyclopentyl-5-(2,6-dimethoxyphenyl)-1H-pyrazol-3-yl]formamido}propanoic acid] | 6170 nM |
